The results in this text go back to patent publication US7943606B2, “Compositions and methods to control abnormal cell growth” (CanCure Laboratories, LLC, priority 2005, dated 2011).

Structures can show the parent of a compound that is named as a salt. Where two headings read alike, the source gives them in different places.

The test system of one assay is MEL-28 cells. Kind of assay: Viability of MEL-28 melanoma cells. Particulars: for inhibition at 100 µM: Homo sapiens, SK-MEL-28, read-out: Decrease in cell number (maximal decrease = 100%), MEL-28. The format is cell-based, human. How it is done:
(§1) To quantify cell death, around the time when significant and characteristic morphological changes took place, cells were pulse-labeled for 10 minutes with [^3H]thymidine to measure DNA activity as described elsewhere [Tomono, M. and Kiss, Z. (1995), “Ethanol enhances the stimulatory effects of insulin and insulin-like growth factor-I on DNA synthesis in NIH 3T3 fibroblasts,” Biochem. Biophys. Res. Commun. 208, 63-67]. Also, cells were collected as suspensions using trypsin, an established method in cell biology, followed by re-plating of cells in fresh tissue culture medium. If no viable cells were obtained after one week in culture, it meant that the cells at the time of re-plating were dead. Survival values obtained with untreated cells were considered 100%. For the determination of relative number of viable cells after treatments, in most cases the MTT assay was used. This calorimetric assay is based on the ability of living cells, but not dead cells, to reduce 3-(4,5-dimethyl thiazol-2-yl)-2,5-diphenyltetrazolium bromide [Carmichael, J, De Graff, W. G., Gazdar, A. F., Minna, J. D. and Mitchell, J. B. (1987), “Evaluation of tetrazolium-based semi-automated calorimetric assay: Assessment of chemosensitivity testing,” Cancer Res. 47, 936-942]. For this assay, cells were plated in 96-well plates, and the MTT assay was performed both in untreated and treated cell cultures. The MTT assay also was performed at the start of treatments to allow assessment of proliferation rates in the control and treated cell cultures.
About 60% confluent cultures of MEL-28 cells, cultured in 12-well plates in MEM medium supplemented with 10% FBS, were either untreated (FIG. 2A), or were treated with 100 μM CCDTHT (CCompound3) for 72 hours (FIG. 2B).
The NIH 3T3 (normal) mouse fibroblast, A431 human epidermoid adenocarcinoma, and MCF-7 human breast cancer cells were cultured in DMEM medium containing 10% FBS. The MEL-28 human melanoma cells were cultured in MEM medium containing 10% FBS. The HT-29 human colon adenocarcinoma cells were cultured in McCoy's 5a medium containing 10% FBS. The A549 human lung carcinoma cells were maintained in Ham's F12K medium containing 10% FBS. Cells were seeded into 96-well plates and treated at ˜70-90% confluency. Two hours before treatments the medium was changed for fresh 10% serum medium, and then the cells were incubated for 72 hours in the presence of 0-200 μM of CCompound1 (●) or CCompound3 (CCDTHT) (▴), as indicated. The MTT assay was used to determine cell viability after treatments. The values, shown in FIGS. 5A-5F and expressed as percent decrease in viability compared to the untreated control cells, are the mean±std. dev. of 8 incubations in one experiment.
(§2) NIH3T3, T47D, A-431, HT-29, and MEL-28 cells were cultured as indicated earlier. CaOV-3 human ovarian cancer cells were cultured in DMEM containing 10% FBS. ZR-75-1 human estrogen receptor-positive breast cancer cells were maintained in RPMI 1640 medium supplemented with 10% FBS. HTB-157 human fetal fibroblasts, MEL-24 human malignant melanoma cells, Hep G2 human hepatoblastoma cells, and CaCO-2 human colon adenocarcinoma cells were maintained in Eagles's MEM containing 10% FBS. MB-231 human estrogen receptor-negative breast cancer cells were maintained in Leibovitz's L-15 medium supplemented with 10% FBS. Cells were seeded into 96-well plates and treated at ˜70-90% confluency. Two hours prior to treatments the medium was changed for fresh 10% serum medium, and then the cells were incubated for 10 days in the absence (□) or presence of 50 μM CCDTHT ? or 100 μM CCDTHT (▪). The medium was changed and the cells were re-treated on days 3 and 6. The MTT assay was used to determine cell viability on day 10. The data, shown in FIG. 6, are the mean±std. dev. of 8 incubations in one experiment.

For the next assay, the system named is T47D cells. Kind of assay: Viability of T47D breast cancer cells. In kind it is cell-based, human. The note with it: for inhibition at 100 µM / IC50: Homo sapiens, T47D; for inhibition at 100 µM: read-out: Decrease in cell number (maximal decrease = 100%), T47D. Here is the method:
as §1
About 40% confluent cultures of T47D cells, cultured in 12-well plates in RPMI 1640 medium supplemented with 0.2 IU bovine insulin and 10% FBS, were either untreated (FIG. 4A), or were treated with 100 μM CCDTHT (CCompound3) for 72 hours (FIG. 4B).
as §2
The MRC-5 cell line is derived from normal lung tissue of a […] fetus. MRC-5 cells were maintained and treated in Eagles Medium with Hanks' BSS containing 10% fetal bovine serum. The T47D cells were maintained and treated in RPMI 1640 medium supplemented with 0.2 IU bovine insulin and 10% fetal bovine serum. The CaOV-3 human ovarian cancer cells were cultured in Dulbecco's modified Eagle's medium containing 10% fetal bovine serum. The cells were seeded in 96-well plates either at 10,000 cells per well or 30,000 cells per well to examine the antiproliferative and cytotoxic effects of various CC compounds, respectively. The cells were incubated for 24 hours, then the medium was changed followed by the treatments of cultures 2 hours after the medium change. At this point, cell cultures seeded at 10,000 cells per well and 30,000 cells per well were 25-35% and 80-90% confluent, respectively.

The mark [1] stands for this setting: 100 μM, 72 hours, 12-well plates.

The term IC50 denotes the midpoint of a concentration-inhibition curve.

As for `CC[N+](C)(CC)CCOCc1ccc2sc3ccccc3c(=O)c2c1.[I-]` [CCDTHT, N,N-diethyl-N-methyl-2-[(9-oxo-9H-thioxanthen-2-yl)methoxy]-ethanaminium iodide], the “reduction of cell numbers, MEL-28, CCDTHT versus CCompound1” value with MEL-28 cells (0-200 μM, 72 hours, MTT) is reported as “clearly more effective than CCompound1”. For the same compound, in the assay with MEL-28 cells (50 μM 48 hours, then 96 hours without CCDTHT), the “reversibility: proliferation in fresh medium after treatment, MEL-28” value is reported as “not sufficient to suppress proliferation”. In the assay with MEL-28 cells (100 μM, 72 hours), the “DNA synthesis (radiolabeled thymidine), MEL-28” value is recorded as “did not synthesize detectable amount of DNA”. Besides, the “morphology / cell death, MEL-28” value in the assay with MEL-28 cells (setting [1]) was “practically all cells rounded up”. Further, the “decrease in the number of viable cells versus 0.5 mM HC-3, MEL-28” value in the assay on MEL-28 cells (100 μM, 72 hours, MTT) is listed as “much greater decreases in the number of viable cells compared to 0.5 mM HC-3”. In addition, in the assay on MEL-28 cells (50 and 100 μM, 10 days, MTT), the “sensitivity to the inhibitory actions, MEL-28” value is “very sensitive”. The inhibition at 100 µM stood at 60% with MEL-28 cells (100 μM, 72 hours) and 61% in the assay on T47D cells (100 μM, 72 hours). Besides, in the assay on T47D cells (100 μM 72 hours, re-seeded, 96 hours later), the “DNA synthesis after re-seeding treated T47D cells” value is “no DNA synthesis could be detected”. For the same compound, the “morphology / cell death, T47D” value with T47D cells (setting [1]) was “practically all cells rounded up”. Moreover, the “sensitivity to the inhibitory actions, T47D” value in the assay with T47D cells (50 and 100 μM, 10 days, MTT) is reported as “very sensitive”. For the same compound, the IC50 turned out to be 47 µM in the assay with T47D cells (10,000 cells per well (25-35% confluent), 72 hours, MTT, read-out: IC50 values, Antiproliferative, T47D) and 66 µM with T47D cells (30,000 cells per well (80-90% confluent), 72 hours, MTT, read-out: IC50 values, Cytotoxic, T47D).

Regarding `CC[N+](CC)(CC)CCCOCc1ccc2sc3ccccc3c(=O)c2c1` [CCcompound9, N,N,N-Triethyl-3-[(9-oxo-9H-thioxanthen-2-yl)methoxy]-propane-1-aminium iodide], the inhibition at 100 µM in the assay with MEL-28 cells (100 μM, 72 hours) was 14%; in the assay with T47D cells (100 μM, 72 hours), 52%.

For `CC[N+](C)(CC)CCCOCc1ccc2sc3ccccc3c(=O)c2c1` [CCcompound10, N,N-Diethyl-N-methyl-3-[(9-oxo-9H-thioxanthen-2-yl)methoxy]-propane-1-aminium iodide], the inhibition at 100 µM with MEL-28 cells (100 μM, 72 hours) was 11%; with T47D cells (100 μM, 72 hours), 51%.

Take `CC[N+](C)(C)CCCOCc1ccc2sc3ccccc3c(=O)c2c1` [CCcompound11, N,N-Dimethyl-N-ethyl-3-[(9-oxo-9H-thioxanthen-2-yl)methoxy]-propane-1-aminium iodide]: the inhibition at 100 µM worked out at 94% in the assay on MEL-28 cells (100 μM, 72 hours) and 59% in the assay with T47D cells (100 μM, 72 hours).

As to `CC[NH+](CC)CCCOCc1ccc2sc3ccccc3c(=O)c2c1` [CCcompound12, 2-{[3-(Diethylamino)propoxy]meth-yl}-9H-thioxanthen-9-one hydrochloride], the inhibition at 100 µM in the assay with MEL-28 cells (100 μM, 72 hours) worked out at 71%; with T47D cells (100 μM, 72 hours), 48%.

Take `C[N+](C)(CCO)Cc1ccc2sc3ccccc3c(=O)c2c1` [CCcompound13, 2-Hydroxy-N,N-dimethyl-N-[(9-oxo-9H-thioxanthen-2-yl)methyl]-ethanaminium bromide]: the inhibition at 100 µM in the assay on MEL-28 cells (100 μM, 72 hours) stood at 11%; with T47D cells (100 μM, 72 hours), 47%.

As for `CC[N+](CC)(CCO)Cc1ccc2sc3ccccc3c(=O)c2c1` [CCcompound14, 2-Hydroxy-N,N-Diethyl-N-[(9-oxo-9H-thioxanthen-2-yl)methyl]-ethanaminium bromide], the inhibition at 100 µM in the assay on MEL-28 cells (100 μM, 72 hours) came out at 90%; in the assay with T47D cells (100 μM, 72 hours), 58%.

As to `C[N+](C)(CCCO)Cc1ccc2sc3ccccc3c(=O)c2c1` [CCcompound15, 3-Hydroxy-N,N-dimethyl-N-[(9-oxo-9H-thioxanthen-2-yl)methyl]propane-1-aminium bromide], the inhibition at 100 µM stood at 19% in the assay with MEL-28 cells (100 μM, 72 hours) and 35% with T47D cells (100 μM, 72 hours).

Consider `CC[N+](CC)(CCCO)Cc1ccc2sc3ccccc3c(=O)c2c1` [CCcompound16, 3-Hydroxy-N,N-diethyl-N-[(9-oxo-9H-thioxanthen-2-yl)methyl]-propane-1-aminium bromide], for which the inhibition at 100 µM in the assay on MEL-28 cells (100 μM, 72 hours) was 10%; with T47D cells (100 μM, 72 hours), 48%.
